Data from BindingDB's records for doi:10.1021/jm401695d (Emory University, 2014).

Target: Glutamate NMDA receptor; Grin1/Grin2c (Rattus norvegicus, UniProt Q00961+P35439)
Assay: Potentiation of rat recombinant GluN1/GluN2C expressed in Xenopus laevis oocytes assessed as increase in glutamate/glycine-induced current response by two-electrode voltage clamp technique relative to control

Chain of Glutamate NMDA receptor; Grin1/Grin2c (Q00961 whole entry, other chains not shown): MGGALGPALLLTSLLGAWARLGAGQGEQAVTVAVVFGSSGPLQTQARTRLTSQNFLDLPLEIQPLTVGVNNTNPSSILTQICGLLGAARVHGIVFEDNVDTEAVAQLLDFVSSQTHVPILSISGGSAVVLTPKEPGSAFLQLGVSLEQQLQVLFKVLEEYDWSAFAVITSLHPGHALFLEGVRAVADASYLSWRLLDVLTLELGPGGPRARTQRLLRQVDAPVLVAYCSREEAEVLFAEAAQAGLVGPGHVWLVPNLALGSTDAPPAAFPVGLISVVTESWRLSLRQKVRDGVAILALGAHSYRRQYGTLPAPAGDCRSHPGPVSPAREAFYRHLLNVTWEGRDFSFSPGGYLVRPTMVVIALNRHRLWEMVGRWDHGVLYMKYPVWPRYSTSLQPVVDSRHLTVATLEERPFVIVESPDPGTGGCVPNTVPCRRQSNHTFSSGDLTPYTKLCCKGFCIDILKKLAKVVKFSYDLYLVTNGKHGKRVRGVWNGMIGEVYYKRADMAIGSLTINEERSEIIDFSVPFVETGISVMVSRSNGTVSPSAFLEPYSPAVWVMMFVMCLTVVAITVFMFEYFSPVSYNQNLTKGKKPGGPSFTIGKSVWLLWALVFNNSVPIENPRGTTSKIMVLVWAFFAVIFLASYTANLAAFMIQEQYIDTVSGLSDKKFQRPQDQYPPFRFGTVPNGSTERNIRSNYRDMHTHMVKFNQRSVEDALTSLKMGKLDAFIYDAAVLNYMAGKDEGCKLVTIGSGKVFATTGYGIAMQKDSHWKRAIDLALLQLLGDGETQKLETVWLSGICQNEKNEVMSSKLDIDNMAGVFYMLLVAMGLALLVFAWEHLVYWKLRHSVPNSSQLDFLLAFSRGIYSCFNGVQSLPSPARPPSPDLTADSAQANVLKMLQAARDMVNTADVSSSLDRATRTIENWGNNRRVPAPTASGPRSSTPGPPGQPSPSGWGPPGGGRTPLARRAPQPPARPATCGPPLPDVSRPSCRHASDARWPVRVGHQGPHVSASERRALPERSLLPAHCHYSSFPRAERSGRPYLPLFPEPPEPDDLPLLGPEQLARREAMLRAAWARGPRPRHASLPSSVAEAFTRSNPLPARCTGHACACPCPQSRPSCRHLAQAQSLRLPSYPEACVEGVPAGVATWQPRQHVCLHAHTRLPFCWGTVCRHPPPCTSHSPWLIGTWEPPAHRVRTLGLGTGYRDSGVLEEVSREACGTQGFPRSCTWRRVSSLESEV

EC50: 16 µM
SMILES: COC(=O)c1ccc(C2C(C(C)=O)=C(O)C(=O)N2CCc2c(C)[nH]c3ccccc23)cc1 (stereo unspecified)
